Assays:
Test in all cases: KINOMEscan
Assay type in all cases: binding
Conditions in all cases: 2000 nM
CAMK1 = target: T1, CAMK1 (Homo sapiens, UniProt Q14012)
T1 construct: DNA label (qPCR read-out); purchased KINOMEscan (ScanMAX panel service)

TAOK1 = target: T2, TAOK1 (Homo sapiens, UniProt Q7L7X3)
T2 construct: DNA label (for qPCR read-out); purchased DiscoveRx (KINOMEscan scanMAX panel, contract assay)

p38-beta = target: T3, p38-beta (Homo sapiens, UniProt Q15759)
T3 construct: purchased DiscoverX (KINOMEscan service)

PCTK3 = target: T4, PCTK3 (Homo sapiens, UniProt Q07002)
T4 construct: DNA label (for qPCR read-out); purchased DiscoveRx (KINOMEscan scanMAX service)

FGFR1 = target: T5, FGFR1 (Homo sapiens, UniProt P11362)
T5 construct: purchased DiscoveRx (KINOMEscan scanMAX panel)

PIK3CA = target: T6, PIK3CA (Homo sapiens, UniProt P42336)
T6 construct: DNA label (for qPCR read-out); purchased DiscoveRx (KINOMEscan scanMAX service)

PRKD3 = target: T7, PRKD3 (Homo sapiens, UniProt O94806)
T7 construct: purchased DiscoveRx (KINOMEscan scanMAX panel)

GAK = target: T8, GAK (Homo sapiens, UniProt O14976)
T8 construct: purchased KINOMEscan (DiscoveRx)

MARK1 = MARK1 (Homo sapiens, UniProt Q9P0L2)
FES = target: T9, FES (Homo sapiens, UniProt P07332)
T9 construct: purchased DiscoveRx (KINOMEscan scanMAX panel)

CHEK1 = target: T10, CHEK1 (Homo sapiens, UniProt O14757)
T10 construct: DNA label (for qPCR read-out); purchased DiscoveRx (KINOMEscan scanMAX service)

CDK9 = target: T11, CDK9 (Homo sapiens, UniProt P50750)
T11 construct: purchased DiscoverX (KINOMEscan service)

CSF1R = target: T12, CSF1R (Homo sapiens, UniProt P07333)
T12 construct: DNA label (for qPCR read-out); purchased DiscoveRx (KINOMEscan scanMAX service)

PRKD1 = target: T13, PRKD1 (Homo sapiens, UniProt Q15139)
T13 construct: purchased DiscoveRx (KINOMEscan scanMAX panel)

RET(M918T) = target: T14, RET(M918T) (Homo sapiens, UniProt P07949, M918T)
T14 construct: purchased DiscoveRx (KINOMEscan scanMAX panel)

HIPK4 = target: T15, HIPK4 (Homo sapiens, UniProt Q8NE63)
T15 construct: DNA label (for qPCR read-out); purchased DiscoveRx (KINOMEscan scanMAX panel, contract assay)

TNK2 = target: T16, TNK2 (Homo sapiens, UniProt Q07912)
T16 construct: DNA label (qPCR read-out); purchased KINOMEscan (DiscoveRx) ScanMAX panel

SRPK1 = target: T17, SRPK1 (Homo sapiens, UniProt Q96SB4)
T17 construct: purchased KINOMEscan (DiscoveRx)

[1] = target: T18, EGFR(L747-S752del, P753S) (Homo sapiens, UniProt P00533, DEL747-752/P753S)
T18 construct: purchased DiscoveRx (KINOMEscan scanMAX panel)

CSNK1A1L = target: T19, CSNK1A1L (Homo sapiens, UniProt Q8N752)
T19 construct: DNA label; purchased DiscoveRx (KINOMEscan scanMAX panel)

CAMK1B = target: T20, CAMK1B (Homo sapiens, UniProt Q6P2M8)
T20 construct: DNA label (qPCR read-out); purchased KINOMEscan (ScanMAX panel service)

PAK4 = target: T21, PAK4 (Homo sapiens, UniProt O96013)
T21 construct: purchased DiscoverX (KINOMEscan service)

MEK2 = target: T22, MEK2 (Homo sapiens, UniProt P36507)
T22 construct: purchased DiscoveRx (KINOMEscan scanMAX panel, service)

[2] = target: T23, JAK2(JH1domain-catalytic) (Homo sapiens, UniProt O60674)
T23 construct: JAK2(JH1domain-catalytic); DNA label (for qPCR read-out); purchased DiscoveRx (KINOMEscan scanMAX panel)

[3] = target: ABL1(Y253F)-phosphorylated (Homo sapiens, UniProt P00519, Y253F)
[4] = target: ABL1(T315I)-nonphosphorylated (Homo sapiens, UniProt P00519, T315I)
YANK2 = target: T24, YANK2 (Homo sapiens, UniProt Q9NY57)
T24 construct: purchased KINOMEscan (DiscoveRx) panel service

ULK3 = target: T25, ULK3 (Homo sapiens, UniProt Q6PHR2)
T25 construct: DNA label (for qPCR read-out); purchased DiscoveRx (KINOMEscan scanMAX panel)

PIK3CA(E542K) = target: T26, PIK3CA(E542K) (Homo sapiens, UniProt P42336, E542K)
T26 construct: DNA label; purchased DiscoveRx (KINOMEscan scanMAX panel)

MEK4 = target: T27, MEK4 (Homo sapiens, UniProt P45985)
T27 construct: purchased DiscoveRx (KINOMEscan scanMAX panel, service)

FGFR4 = target: T28, FGFR4 (Homo sapiens, UniProt P22455)
T28 construct: purchased DiscoveRx (KINOMEscan scanMAX panel)

MLK2 = target: T29, MLK2 (Homo sapiens, UniProt Q02779)
T29 construct: DNA label (qPCR read-out); purchased KINOMEscan scanMAX panel (DiscoveRx)

[5] = target: T30, RPS6KA5(Kin.Dom.2-C-terminal) (Homo sapiens, UniProt O75582)
T30 construct: RPS6KA5(Kin.Dom.2); purchased DiscoveRx (KINOMEscan scanMAX panel)

MAP4K4 = MAP4K4 (Homo sapiens, UniProt O95819)
PKN1 = target: T31, PKN1 (Homo sapiens, UniProt Q16512)
T31 construct: DNA label (qPCR read-out); purchased KINOMEscan (DiscoveRx) panel

T17 sequence (Q96SB4 whole entry): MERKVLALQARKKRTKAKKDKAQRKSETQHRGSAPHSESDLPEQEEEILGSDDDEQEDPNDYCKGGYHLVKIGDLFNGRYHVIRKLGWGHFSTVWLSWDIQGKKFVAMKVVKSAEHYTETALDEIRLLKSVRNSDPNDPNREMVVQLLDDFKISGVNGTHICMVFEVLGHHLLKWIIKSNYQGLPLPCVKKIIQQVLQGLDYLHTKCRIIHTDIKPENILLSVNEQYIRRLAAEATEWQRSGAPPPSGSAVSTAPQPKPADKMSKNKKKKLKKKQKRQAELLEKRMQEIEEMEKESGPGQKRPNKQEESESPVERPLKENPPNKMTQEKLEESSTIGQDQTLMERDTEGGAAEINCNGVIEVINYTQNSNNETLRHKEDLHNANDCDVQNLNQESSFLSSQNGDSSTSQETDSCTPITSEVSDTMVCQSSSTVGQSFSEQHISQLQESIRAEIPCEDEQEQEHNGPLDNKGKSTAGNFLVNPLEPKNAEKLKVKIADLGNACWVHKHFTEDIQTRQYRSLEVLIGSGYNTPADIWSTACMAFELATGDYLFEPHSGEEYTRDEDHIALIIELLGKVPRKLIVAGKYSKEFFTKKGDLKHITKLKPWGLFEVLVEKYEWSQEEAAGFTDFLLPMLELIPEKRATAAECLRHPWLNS
T12 sequence (P07333 20-972): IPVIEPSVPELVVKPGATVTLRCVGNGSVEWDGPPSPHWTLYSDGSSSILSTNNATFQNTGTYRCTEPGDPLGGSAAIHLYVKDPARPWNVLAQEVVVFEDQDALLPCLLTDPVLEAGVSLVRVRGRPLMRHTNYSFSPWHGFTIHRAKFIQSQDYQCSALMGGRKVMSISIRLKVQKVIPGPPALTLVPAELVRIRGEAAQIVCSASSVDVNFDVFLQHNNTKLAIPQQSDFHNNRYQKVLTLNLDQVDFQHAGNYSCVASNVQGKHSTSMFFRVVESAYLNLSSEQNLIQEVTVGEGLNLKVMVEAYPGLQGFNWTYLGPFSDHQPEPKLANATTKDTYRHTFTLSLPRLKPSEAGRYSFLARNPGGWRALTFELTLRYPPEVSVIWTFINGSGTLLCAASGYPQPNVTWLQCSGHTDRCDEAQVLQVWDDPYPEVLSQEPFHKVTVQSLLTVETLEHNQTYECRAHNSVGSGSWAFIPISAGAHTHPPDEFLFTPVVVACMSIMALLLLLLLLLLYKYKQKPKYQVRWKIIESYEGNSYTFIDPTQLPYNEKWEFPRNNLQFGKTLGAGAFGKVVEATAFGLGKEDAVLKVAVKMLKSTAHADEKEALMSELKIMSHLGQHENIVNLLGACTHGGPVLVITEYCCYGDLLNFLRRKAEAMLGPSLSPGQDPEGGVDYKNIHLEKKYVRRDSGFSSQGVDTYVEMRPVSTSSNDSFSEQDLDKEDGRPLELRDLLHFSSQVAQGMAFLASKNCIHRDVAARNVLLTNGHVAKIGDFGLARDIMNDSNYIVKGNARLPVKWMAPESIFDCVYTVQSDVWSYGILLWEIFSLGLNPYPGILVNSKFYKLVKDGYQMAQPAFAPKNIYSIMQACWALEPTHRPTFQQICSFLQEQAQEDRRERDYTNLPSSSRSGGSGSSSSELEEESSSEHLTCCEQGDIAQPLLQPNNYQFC
T24 sequence (Q9NY57 whole entry): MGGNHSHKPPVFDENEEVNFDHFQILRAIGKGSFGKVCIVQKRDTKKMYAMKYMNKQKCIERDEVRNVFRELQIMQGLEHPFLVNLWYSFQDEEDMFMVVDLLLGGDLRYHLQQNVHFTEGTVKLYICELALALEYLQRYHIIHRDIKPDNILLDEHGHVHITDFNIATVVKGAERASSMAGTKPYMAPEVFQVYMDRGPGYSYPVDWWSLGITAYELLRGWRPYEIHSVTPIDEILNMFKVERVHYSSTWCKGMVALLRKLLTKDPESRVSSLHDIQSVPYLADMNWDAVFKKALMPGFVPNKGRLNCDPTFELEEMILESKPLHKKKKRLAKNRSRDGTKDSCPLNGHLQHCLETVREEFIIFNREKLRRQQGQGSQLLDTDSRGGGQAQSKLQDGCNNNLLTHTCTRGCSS
T20 sequence (Q6P2M8 whole entry): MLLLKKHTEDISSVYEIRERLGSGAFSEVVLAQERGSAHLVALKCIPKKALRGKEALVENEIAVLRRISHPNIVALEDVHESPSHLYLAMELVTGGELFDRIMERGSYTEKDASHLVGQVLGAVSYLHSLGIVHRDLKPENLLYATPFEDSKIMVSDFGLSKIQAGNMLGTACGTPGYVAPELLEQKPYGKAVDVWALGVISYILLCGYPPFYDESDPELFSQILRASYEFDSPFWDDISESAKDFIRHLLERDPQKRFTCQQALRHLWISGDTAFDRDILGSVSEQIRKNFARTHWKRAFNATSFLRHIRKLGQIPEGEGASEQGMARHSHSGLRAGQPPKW
T27 sequence (P45985 whole entry): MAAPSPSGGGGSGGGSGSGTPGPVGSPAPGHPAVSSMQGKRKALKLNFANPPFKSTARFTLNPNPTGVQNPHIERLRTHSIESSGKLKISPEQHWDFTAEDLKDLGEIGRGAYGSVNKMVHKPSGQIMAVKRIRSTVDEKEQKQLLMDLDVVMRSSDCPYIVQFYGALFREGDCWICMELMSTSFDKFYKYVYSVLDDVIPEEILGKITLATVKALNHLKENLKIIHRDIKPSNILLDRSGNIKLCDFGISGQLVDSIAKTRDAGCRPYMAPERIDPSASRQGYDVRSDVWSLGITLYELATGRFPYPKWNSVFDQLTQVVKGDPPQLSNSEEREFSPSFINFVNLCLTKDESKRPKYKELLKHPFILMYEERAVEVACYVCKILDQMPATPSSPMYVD
T2 sequence (Q7L7X3 whole entry): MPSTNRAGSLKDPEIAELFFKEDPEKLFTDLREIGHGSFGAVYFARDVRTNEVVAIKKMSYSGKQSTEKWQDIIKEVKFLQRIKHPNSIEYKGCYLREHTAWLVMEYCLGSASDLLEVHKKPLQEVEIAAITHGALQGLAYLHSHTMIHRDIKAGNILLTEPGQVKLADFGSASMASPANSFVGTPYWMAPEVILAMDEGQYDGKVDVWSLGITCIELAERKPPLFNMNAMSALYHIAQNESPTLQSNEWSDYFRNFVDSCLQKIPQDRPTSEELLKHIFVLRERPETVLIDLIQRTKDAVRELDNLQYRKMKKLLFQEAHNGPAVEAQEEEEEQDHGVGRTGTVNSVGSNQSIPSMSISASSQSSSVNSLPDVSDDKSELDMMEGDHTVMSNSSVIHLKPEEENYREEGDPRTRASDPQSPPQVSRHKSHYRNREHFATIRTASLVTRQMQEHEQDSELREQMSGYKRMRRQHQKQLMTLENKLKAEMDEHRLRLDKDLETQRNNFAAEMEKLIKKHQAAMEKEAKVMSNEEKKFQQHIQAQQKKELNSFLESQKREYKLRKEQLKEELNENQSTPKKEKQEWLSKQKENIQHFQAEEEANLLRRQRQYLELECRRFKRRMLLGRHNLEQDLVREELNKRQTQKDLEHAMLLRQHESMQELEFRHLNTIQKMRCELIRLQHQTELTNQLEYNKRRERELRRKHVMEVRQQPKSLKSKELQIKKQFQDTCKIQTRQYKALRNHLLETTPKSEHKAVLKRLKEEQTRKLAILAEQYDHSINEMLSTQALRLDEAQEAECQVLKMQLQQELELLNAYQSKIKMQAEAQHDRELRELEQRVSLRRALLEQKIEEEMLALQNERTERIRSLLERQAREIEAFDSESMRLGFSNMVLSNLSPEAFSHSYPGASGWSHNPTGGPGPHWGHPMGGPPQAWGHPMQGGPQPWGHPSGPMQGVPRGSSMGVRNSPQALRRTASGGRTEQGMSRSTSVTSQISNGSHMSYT
T3 sequence (Q15759 whole entry): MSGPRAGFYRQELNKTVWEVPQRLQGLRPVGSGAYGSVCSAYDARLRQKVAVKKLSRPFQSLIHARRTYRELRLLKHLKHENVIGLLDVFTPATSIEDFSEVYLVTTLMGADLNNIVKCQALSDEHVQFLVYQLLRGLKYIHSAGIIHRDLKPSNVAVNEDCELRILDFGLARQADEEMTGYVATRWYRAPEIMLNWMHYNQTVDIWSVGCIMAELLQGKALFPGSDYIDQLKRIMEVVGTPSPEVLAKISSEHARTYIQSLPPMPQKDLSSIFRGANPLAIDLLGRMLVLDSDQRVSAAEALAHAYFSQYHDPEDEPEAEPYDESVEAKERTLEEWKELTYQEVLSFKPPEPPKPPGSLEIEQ
T25 sequence (Q6PHR2 whole entry): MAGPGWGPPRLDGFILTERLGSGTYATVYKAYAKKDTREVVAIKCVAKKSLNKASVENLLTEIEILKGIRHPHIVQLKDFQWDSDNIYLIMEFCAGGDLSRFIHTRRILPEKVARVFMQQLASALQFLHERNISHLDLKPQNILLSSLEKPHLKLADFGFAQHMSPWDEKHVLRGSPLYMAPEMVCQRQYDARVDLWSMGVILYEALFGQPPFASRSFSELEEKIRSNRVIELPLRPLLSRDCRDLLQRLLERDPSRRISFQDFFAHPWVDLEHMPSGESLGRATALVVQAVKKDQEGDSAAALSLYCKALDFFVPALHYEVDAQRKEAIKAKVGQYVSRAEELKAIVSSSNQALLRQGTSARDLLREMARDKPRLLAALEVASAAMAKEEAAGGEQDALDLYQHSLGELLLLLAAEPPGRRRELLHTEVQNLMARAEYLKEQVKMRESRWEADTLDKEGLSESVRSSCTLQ
T23 sequence (O60674 849-1124 limits assumed): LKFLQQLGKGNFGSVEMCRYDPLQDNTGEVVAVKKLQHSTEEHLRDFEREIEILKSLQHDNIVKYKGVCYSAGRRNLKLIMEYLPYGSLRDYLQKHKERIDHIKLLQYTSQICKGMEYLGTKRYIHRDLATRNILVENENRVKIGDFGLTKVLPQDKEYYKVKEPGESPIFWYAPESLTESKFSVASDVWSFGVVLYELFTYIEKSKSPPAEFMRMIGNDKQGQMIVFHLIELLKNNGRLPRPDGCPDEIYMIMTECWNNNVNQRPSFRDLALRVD

| Compound | % Ctrl (CAMK1) [% Ctrl] | % Ctrl (TAOK1) [% Ctrl] | % Ctrl (p38-beta) [% Ctrl] | % Ctrl (PCTK3) [% Ctrl] | % Ctrl (FGFR1) [% Ctrl] | % Ctrl (PIK3CA) [% Ctrl] | % Ctrl (PRKD3) [% Ctrl] | % Ctrl (GAK) [% Ctrl] | % Ctrl (MARK1) [% Ctrl] | % Ctrl (FES) [% Ctrl] | % Ctrl (CHEK1) [% Ctrl] | % Ctrl (CDK9) [% Ctrl] | % Ctrl (CSF1R) [% Ctrl] | % Ctrl (PRKD1) [% Ctrl] | % Ctrl (RET(M918T)) [% Ctrl] | % Ctrl (HIPK4) [% Ctrl] | % Ctrl (TNK2) [% Ctrl] | % Ctrl (SRPK1) [% Ctrl] | % Ctrl [1] [% Ctrl] | % Ctrl (CSNK1A1L) [% Ctrl] | also measured |
| --- | --- | --- | --- | --- | --- | --- | --- | --- | --- | --- | --- | --- | --- | --- | --- | --- | --- | --- | --- | --- | --- |
| CN(C)C(=O)c1ccc(N2CCCN(c3ccnc4sc(C(N)=O)c(N)c34)CC2)cc1 [15u, 3-amino-4-(4-(4-(dimethylcarbamoyl)phenyl)-1,4-diazepan-1-yl)thieno[2,3-b]pyridine-2-carboxamide] | 83 | 100 | 100 | 100 | 98 | 100 | 94 | 88 | 100 | 100 | 94 | 66 | 98 | 88 | 98 | 100 | 100 | 100 | 99 | 67 | % Ctrl (CAMK1B): 100 % Ctrl; % Ctrl (PAK4): 87 % Ctrl; % Ctrl (MEK2): 88 % Ctrl; % Ctrl [2]: 100 % Ctrl; % Ctrl [3]: 100 % Ctrl; % Ctrl [4]: 100 % Ctrl; % Ctrl (YANK2): 89 % Ctrl; % Ctrl (ULK3): 96 % Ctrl; % Ctrl (PIK3CA(E542K)): 92 % Ctrl; % Ctrl (MEK4): 69 % Ctrl; % Ctrl (FGFR4): 100 % Ctrl; % Ctrl (MLK2): 100 % Ctrl; % Ctrl [5]: 95 % Ctrl; % Ctrl (MAP4K4): 100 % Ctrl; % Ctrl (PKN1): 96 % Ctrl |
| [2H]C([2H])([2H])N(C(=O)c1ccc(N2CCCN(c3ccnc4sc(C(N)=O)c(N)c34)CC2)cc1)C([2H])([2H])[2H] [15u_D6, 3-amino-4-(4-(4-(bis(methyl-d3)carbamoyl)phenyl)-1,4-diazepan-1-yl)thieno[2,3-b]pyridine-2-carboxamide] | 95 | 73 | 97 | 100 | 92 | 79 | 100 | 94 | 100 | 100 | 100 | 100 | 95 | 92 | 98 | 100 | 100 | 97 | 100 | 37 | % Ctrl (CAMK1B): 70 % Ctrl; % Ctrl (PAK4): 100 % Ctrl; % Ctrl (MEK2): 82 % Ctrl; % Ctrl [2]: 93 % Ctrl; % Ctrl [3]: 81 % Ctrl; % Ctrl [4]: 85 % Ctrl; % Ctrl (YANK2): 84 % Ctrl; % Ctrl (ULK3): 79 % Ctrl; % Ctrl (PIK3CA(E542K)): 74 % Ctrl; % Ctrl (MEK4): 74 % Ctrl; % Ctrl (FGFR4): 96 % Ctrl; % Ctrl (MLK2): 95 % Ctrl; % Ctrl [5]: 100 % Ctrl; % Ctrl (MAP4K4): 93 % Ctrl; % Ctrl (PKN1): 100 % Ctrl |
